From patent US12263171B2, “7-, 8-, and 10-substituted amino triazolo quinazoline derivatives as adenosine receptor antagonists, pharmaceutical compositions and their use” (Merck Sharp & Dohme LLC, priority 2018, dated 2025)

Columns and labels:
[1] = biological target: human A2a adenosine receptor (Homo sapiens (Human), UniProt P29274); test: A2a receptor affinity radioligand binding assay ([3H] SCH58261, membranes from HEK293 or CHO cells); conditions: unstarred values: radioligand binding
Protocol: The A2a receptor affinity binding assay measured the amount of binding of a tritiated ligand with high affinity for the A2a adenosine receptor to membranes made from HEK293 or CHO cells recombinantly expressing the human A2a adenosine receptor, in the presence of varying concentrations of a compound of the invention.
Measurement of A2a Binding Affinity Using Radioligand Binding
148 μL, (5 μg/mL) membranes (Perkin Elmer, Cat. No. RBHA2aM4001A) and 2 μL compounds of the invention to be tested (test compound) were transferred to individual wells of a 96-well polypropylene assay plate and incubated for 15 to 30 minutes at room temperature. [^3H] SCH58261 ((7-(2-phenylethyl)-5-amino-2-(2-furyl)-pyrazolo-[4,3-e]-1,2,4-triazolo[1,5-c]pyrimidine)) was diluted in assay buffer (50 mM Tris pH 7.4, 10 mM MgCl2, 0.005% Tween20) to a concentration of 4 nM and 50 μL transferred to each well of the assay plate. […] The assay plate was incubated at room temperature for 60 minutes with agitation. […] Filtering was achieved by aspirating the contents of the assay plate for 5 seconds, then washing and aspirating the contents three times with ice-cooled wash buffer (50 mM Tris-HCl pH 7.4, 150 mM NaCl) and allowing the vacuum manifold to dry the plate for 30 seconds. The filter plate was incubated for at least 1 hour at 55° C. and allowed to dry. The bottom of the filter plate was sealed with backing tape. 40 μL. […] The plate was incubated for at least 20 minutes, and then the amount of radioactivity remaining in each well was determined using a TopCown® (Perkin Elmer) scintillation counter. After normalization to total and non-specific binding, the percent effect at each compound concentration was calculated. The plot of percent effect versus the log of compound concentration was analyzed electronically using a 4-parameter logistic fit based on the Levenberg-Marquardt algorithm to generate IC50 values.

[2] = biological target: human A2b adenosine receptor (Homo sapiens (Human), UniProt P29275); test: A2b radioligand filtration binding assay (tritiated proprietary A2b antagonist, HEK293 membranes); conditions: unstarred values: radioligand binding
Protocol: Measurement of A2b Binding Affinity
The reported affinity of the compounds of the invention for the human A2b adenosine receptor was determined experimentally using a radioligand filtration binding assay. This assay measures the amount of binding of a tritiated proprietary A2b receptor antagonist, in the presence and absence of a compound of the invention, to membranes made from HEK293 cells recombinantly expressing the human A2b adenosine receptor (Perkin Elmer, Cat. No. ES-013-C).
The filter plate was incubated for at least 1 hour at 55° C. and allowed to dry. The bottom of the filter plate was then sealed with backing tape. […] The plates were then incubated for at least 20 minutes, and then the amount of radioactivity remaining in each well was determined using a TopCount® (Perkin Elmer) scintillation counter. After normalization to total and non-specific binding, the percent effect at each compound concentration was calculated. The plot of percent effect versus the log of compound concentration was analyzed electronically using a 4-parameter logistic fit based on the Levenberg-Marquardt algorithm to generate IC50 values.

Chain of human A2a adenosine receptor (P29274 whole entry): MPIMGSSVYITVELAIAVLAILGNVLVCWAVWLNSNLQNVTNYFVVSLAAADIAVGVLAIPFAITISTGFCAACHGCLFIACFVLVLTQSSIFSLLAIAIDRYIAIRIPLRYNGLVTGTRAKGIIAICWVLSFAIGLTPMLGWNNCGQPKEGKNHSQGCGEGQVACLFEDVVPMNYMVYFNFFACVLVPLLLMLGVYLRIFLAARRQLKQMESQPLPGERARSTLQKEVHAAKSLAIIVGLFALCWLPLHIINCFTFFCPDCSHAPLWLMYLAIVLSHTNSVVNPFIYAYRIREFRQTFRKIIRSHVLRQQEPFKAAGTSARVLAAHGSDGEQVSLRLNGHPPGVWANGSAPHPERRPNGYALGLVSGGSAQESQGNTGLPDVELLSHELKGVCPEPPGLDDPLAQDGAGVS
Chain of human A2b adenosine receptor (P29275 whole entry): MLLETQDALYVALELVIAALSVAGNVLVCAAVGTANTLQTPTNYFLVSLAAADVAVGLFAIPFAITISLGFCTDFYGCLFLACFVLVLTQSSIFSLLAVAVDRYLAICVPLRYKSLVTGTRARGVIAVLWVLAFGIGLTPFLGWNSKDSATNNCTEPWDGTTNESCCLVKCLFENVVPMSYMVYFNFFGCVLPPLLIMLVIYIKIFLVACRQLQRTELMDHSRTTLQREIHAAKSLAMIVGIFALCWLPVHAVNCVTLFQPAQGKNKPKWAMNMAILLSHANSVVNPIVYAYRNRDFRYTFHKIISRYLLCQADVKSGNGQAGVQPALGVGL

| SMILES | IC50 [1] [nM] | IC50 [2] [nM] |
| --- | --- | --- |
| COc1cccc2c1nc(N)n1nc([C@@H]3CCCN(c4cn(CC(C)(C)O)nc4C)C3)nc21 [Example 30, (R)-1-(4-(3-(5-amino-7-methoxy-[1,2,4]triazolo[1,5-c]quinazolin-2-yl)piperidin-1-yl)-3-methyl-1H-pyrazol-1-yl)-2-methylpropan-2-ol] | 0.4 | 103 |
| COc1cccc2c1nc(N)n1nc([C@@H]3CCCN(c4cn(CC5(O)CCC5)nc4C)C3)nc21 [Example 32, (R)-1-((4-(3-(5-amino-7-methoxy-[1,2,4]triazolo[1,5-c]quinazolin-2-yl)piperidin-1-yl)-3-methyl-1H-pyrazol-1-yl)methyl)cyclobutan-1-ol] | 1.1 | 0.7 |
| COc1cccc2c1nc(N)n1nc([C@@H]3CCCN(c4cnn(CC(C)(C)O)c4C)C3)nc21 [Example 33, (R)-1-(4-(3-(5-amino-7-methoxy-[1,2,4]triazolo[1,5-c]quinazolin-2-yl)piperidin-1-yl)-5-methyl-1H-pyrazol-1-yl)-2-methylpropan-2-ol] | 0.1 | 320 |
| COc1cccc2c1nc(N)n1nc([C@@H]3CCCN(c4cnn([C@H]5C[C@@](C)(O)C5)c4)C3)nc21 [Example 35, (R)-3-(4-(3-(5-amino-7-methoxy-[1,2,4]triazolo[1,5-c]quinazolin-2-yl)piperidin-1-yl)-1H-pyrazol-1-yl)-1-methylcyclobutan-1-ol] | 0.7 | 41.9 |
| CCNC(=O)C(C)(C)n1cc(N2CCC[C@@H](c3nc4c5cccc(OC)c5nc(N)n4n3)C2)cn1 [Example 36, (R)-2-(4-(3-(5-amino-7-methoxy-[1,2,4]triazolo[1,5-c]quinazolin-2-yl)piperidin-1-yl)-1H-pyrazol-1-yl)-N-ethyl-2-methylpropanamide] | 1.8 | 1.7 |
| COc1cccc2c1nc(N)n1nc([C@@H]3CCCN(c4cnn(C(C)(C)C(=O)NC5CCC5)c4)C3)nc21 [Example 37, (R)-2-(4-(3-(5-amino-7-methoxy-[1,2,4]triazolo[1,5-c]quinazolin-2-yl)piperidin-1-yl)-1H-pyrazol-1-yl)-N-cyclobutyl-2-methylpropanamide] | 1.5 | 10.7 |
| COc1cccc2c1nc(N)n1nc([C@@H]3CCCN(c4cnn(C(C)(C)C(=O)NC(C)C)c4)C3)nc21 [Example 38, (R)-2-(4-(3-(5-amino-7-methoxy-[1,2,4]triazolo[1,5-c]quinazolin-2-yl)piperidin-1-yl)-1H-pyrazol-1-yl)-N-isopropyl-2-methylpropanamide] | 4.1 | 1.4 |
| COc1cccc2c1nc(N)n1nc([C@@H]3CCCN(c4cnn([C@@H]5CCCC[C@]5(C)O)c4)C3)nc21 [Example 42, (1S,2R)-2-(4-((R)-3-(5-amino-7-methoxy-[1,2,4]triazolo[1,5-c]quinazolin-2-yl)piperidin-1-yl)-1H-pyrazol-1-yl)-1-methylcyclohexan-1-ol] | 1.2 | 3.5 |
| COc1cccc2c1nc(N)n1nc([C@@H]3CCCN(c4cnn([C@H]5CCCC[C@]5(C)O)c4)C3)nc21 [Example 43, (1S,2S)-2-(4-((R)-3-(5-amino-7-methoxy-[1,2,4]triazolo[1,5-c]quinazolin-2-yl)piperidin-1-yl)-1H-pyrazol-1-yl)-1-methylcyclohexan-1-ol] | 0.5 | 1.9 |
| COc1cccc2c1nc(N)n1nc([C@@H]3CCCN(c4cnn(CC5(O)CCCCC5)c4)C3)nc21 [Example 44, (R)-1-((4-(3-(5-amino-7-methoxy-[1,2,4]triazolo[1,5-c]quinazolin-2-yl)piperidin-1-yl)-1H-pyrazol-1-yl)methyl)cyclohexan-1-ol] | 1.2 | 132 |
| COc1cccc2c1nc(N)n1nc([C@@H]3CCCN(c4cnn([C@@H]5CCNC5)c4)C3)nc21 [Example 45, 7-methoxy-2-((R)-1-(1-((R)-pyrrolidin-3-yl)-1H-pyrazol-4-yl)piperidin-3-yl)-[1,2,4]triazolo[1,5-c]quinazolin-5-amine] | 2.6 | 350 |
| COc1cccc2c1nc(N)n1nc([C@@H]3CCCN(c4cn(C5CCOCC5)nc4C)C3)nc21 [Example 46, (R)-7-methoxy-2-(1-(3-methyl-1-(tetrahydro-2H-pyran-4-yl)-1H-pyrazol-4-yl)piperidin-3-yl)-[1,2,4]triazolo[1,5-c]quinazolin-5-amine] | 0.4 | 404 |
| COc1cccc2c1nc(N)n1nc([C@@H]3CCCN(c4cnn(C5CCOCC5)c4C)C3)nc21 [Example 47, (R)-7-methoxy-2-(1-(5-methyl-1-(tetrahydro-2H-pyran-4-yl)-1H-pyrazol-4-yl)piperidin-3-yl)-[1,2,4]triazolo[1,5-c]quinazolin-5-amine] | 0.1 | 223 |
| COc1cccc2c1nc(N)n1nc([C@@H]3CCCN(c4cn(C5CCOCC5)nc4C(F)F)C3)nc21 [Example 48] | 0.6 | 65.5 |
| COc1cccc2c1nc(N)n1nc([C@@H]3CCCN(c4cnn(C5CCOCC5)c4C(F)F)C3)nc21 [Example 49, (R)-2-(1-(5-(difluoromethyl)-1-(tetrahydro-2H-pyran-4-yl)-1H-pyrazol-4-yl)piperidin-3-yl)-7-methoxy-[1,2,4]triazolo[1,5-e]quinazolin-5-amine] | 0.2 | 36 |
| COc1cccc2c1nc(N)n1nc([C@@H]3CCCN(c4cnn([C@H]5CCN(C)C5)c4)C3)nc21 [Example 50, 7-methoxy-2-((R)-1-(1-((S)-1-methylpyrrolidin-3-yl)-1H-pyrazol-4-yl)piperidin-3-yl)-[1,2,4]triazolo[1,5-c]quinazolin-5-amine] | 0.9 | 160 |
| COc1cccc2c1nc(N)n1nc([C@@H]3CCCN(c4cn(C)nc4C(F)(F)F)C3)nc21 [Example 51, (R)-7-methoxy-2-(1-(1-methyl-3-(trifluoromethyl)-1H-pyrazol-4-yl)piperidin-3-yl)-[1,2,4]triazolo[1,5-c]quinazolin-5-amine] | 0.1 | 85.9 |
| COc1cccc2c1nc(N)n1nc([C@@H]3CCCN(c4cn(CC(C)(C)O)nc4C(F)(F)F)C3)nc21 [Example 52, (R)-1-(4-(3-(5-amino-7-methoxy-[1,2,4]triazolo[1,5-c]quinazolin-2-yl)piperidin-1-yl)-3-(trifluoromethyl)-1H-pyrazol-1-yl)-2-methylpropan-2-ol] | 0.4 | 350 |
| COc1cccc2c1nc(N)n1nc([C@@H]3CCCN(c4cn(CC(C)(C)O)nc4C(F)F)C3)nc21 [Example 53, (R)-1-(4-(3-(5-amino-7-methoxy-[1,2,4]triazolo[1,5-c]quinazolin-2-yl)piperidin-1-yl)-3-(difluoromethyl)-1H-pyrazol-1-yl)-2-methylpropan-2-ol] | 0.7 | 151 |
| COc1cccc2c1nc(N)n1nc([C@@H]3CCCN(c4cnn(C(C)(C)CO)c4)C3)nc21 [Example 54, (R)-2-(4-(3-(5-amino-7-methoxy-[1,2,4]triazolo[1,5-c]quinazolin-2-yl)piperidin-1-yl)-1H-pyrazol-1-yl)-2-methylpropan-1-ol] | 0.4 | 16.3 |
| COc1cccc2c1nc(N)n1nc([C@@H]3CCCN(c4cn[nH]c4)C3)nc21 [Example 55] | 1.5 | 4.7 |
| COc1cccc2c1nc(N)n1nc([C@@H]3CCCN(c4cnn(C5CCCC5OC)c4)C3)nc21 (stereo partly drawn) [Example 56, 7-methoxy-2-((3R)-1-(1-(2-methoxycyclopentyl)-1H-pyrazol-4-yl)piperidin-3-yl)-[1,2,4]triazolo[1,5-c]quinazolin-5-amine] | 0.9 | 175 |
| COc1cccc2c1nc(N)n1nc([C@@H]3CCCN(c4cnn(C5CCCC5O)c4)C3)nc21 (stereo partly drawn) [Example 58A] | 0.2 | 64.9 |
| COc1cccc2c1nc(N)n1nc([C@@H]3CCCN(c4nn(CC(C)(C)O)cc4C(F)(F)F)C3)nc21 [Example 62, (R)-1-(3-(3-(5-amino-7-methoxy-[1,2,4]triazolo[1,5-c]quinazolin-2-yl)piperidin-1-yl)-4-(trifluoromethyl)-1H-pyrazol-1-yl)-2-methylpropan-2-ol] | 0.3 | 631 |
